In patent publication US9670212B2, “Inhibitors of PI3K-delta and methods of their use and manufacture” (Exelixis, Inc., priority 2010, dated 2017):

Molecular target: PI3K delta (Homo sapiens (Human), UniProt O00329)
Test: Luciferase-coupled chemiluminescence kinase assay (KinaseGlo, ATP consumption)
Type: biochemical
Method in brief: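 Kinase, compound and ATP (at or below KM) reacted 2 h at ambient temperature; remaining ATP detected by KinaseGlo luciferase chemiluminescence as percent ATP consumed. 10-point dose-response, curves fitted to give IC50.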

PI3K delta, sequence (O00329 whole entry): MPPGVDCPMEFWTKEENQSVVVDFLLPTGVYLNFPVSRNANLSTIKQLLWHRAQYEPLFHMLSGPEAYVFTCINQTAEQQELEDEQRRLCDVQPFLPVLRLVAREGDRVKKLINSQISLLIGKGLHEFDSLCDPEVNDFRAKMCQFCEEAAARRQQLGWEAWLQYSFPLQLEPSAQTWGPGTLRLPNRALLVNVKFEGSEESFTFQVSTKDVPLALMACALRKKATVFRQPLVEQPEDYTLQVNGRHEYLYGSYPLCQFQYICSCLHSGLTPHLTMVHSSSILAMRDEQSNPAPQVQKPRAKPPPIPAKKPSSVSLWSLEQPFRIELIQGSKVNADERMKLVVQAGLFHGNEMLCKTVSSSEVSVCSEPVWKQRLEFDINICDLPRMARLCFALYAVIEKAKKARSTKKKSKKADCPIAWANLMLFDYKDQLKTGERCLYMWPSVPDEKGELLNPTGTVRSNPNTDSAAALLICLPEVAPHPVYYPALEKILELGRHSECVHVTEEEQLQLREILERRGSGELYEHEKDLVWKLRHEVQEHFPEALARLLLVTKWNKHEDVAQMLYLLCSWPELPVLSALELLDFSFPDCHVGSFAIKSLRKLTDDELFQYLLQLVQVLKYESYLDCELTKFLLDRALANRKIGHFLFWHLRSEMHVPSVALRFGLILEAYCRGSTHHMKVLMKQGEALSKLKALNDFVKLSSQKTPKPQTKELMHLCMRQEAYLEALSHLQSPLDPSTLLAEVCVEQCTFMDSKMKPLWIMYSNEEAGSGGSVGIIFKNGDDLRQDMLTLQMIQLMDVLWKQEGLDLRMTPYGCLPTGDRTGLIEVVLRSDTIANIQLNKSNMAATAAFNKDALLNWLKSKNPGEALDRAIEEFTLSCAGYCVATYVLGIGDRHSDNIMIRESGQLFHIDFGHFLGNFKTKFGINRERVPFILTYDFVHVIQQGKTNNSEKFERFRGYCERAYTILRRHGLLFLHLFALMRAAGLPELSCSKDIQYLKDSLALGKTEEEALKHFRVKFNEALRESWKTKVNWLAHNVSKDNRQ
PI3K delta, sequence (P27986 whole entry partner): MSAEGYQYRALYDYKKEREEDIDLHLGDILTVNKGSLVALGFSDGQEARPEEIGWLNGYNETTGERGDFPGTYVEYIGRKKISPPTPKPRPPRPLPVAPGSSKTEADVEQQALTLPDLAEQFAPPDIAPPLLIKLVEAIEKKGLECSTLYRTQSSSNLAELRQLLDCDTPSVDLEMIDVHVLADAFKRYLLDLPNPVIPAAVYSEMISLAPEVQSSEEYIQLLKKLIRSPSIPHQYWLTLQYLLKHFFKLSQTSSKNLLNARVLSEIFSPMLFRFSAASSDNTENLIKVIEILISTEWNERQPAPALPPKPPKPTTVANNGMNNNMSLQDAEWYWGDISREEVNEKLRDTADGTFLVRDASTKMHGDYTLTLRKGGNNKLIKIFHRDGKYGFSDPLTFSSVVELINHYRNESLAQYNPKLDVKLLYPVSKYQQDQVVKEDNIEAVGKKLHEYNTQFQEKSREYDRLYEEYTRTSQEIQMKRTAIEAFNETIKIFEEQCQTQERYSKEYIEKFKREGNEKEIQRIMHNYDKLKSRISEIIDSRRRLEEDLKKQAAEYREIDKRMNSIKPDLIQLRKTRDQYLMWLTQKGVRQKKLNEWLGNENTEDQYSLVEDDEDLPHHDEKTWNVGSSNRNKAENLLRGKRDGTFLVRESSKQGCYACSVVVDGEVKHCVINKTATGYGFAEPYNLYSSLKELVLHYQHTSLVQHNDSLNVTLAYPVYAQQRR

Row | Compound | IC50
1 | Cc1cccc2cc(CNC(=O)c3nccnc3N)c(N(C)CCN(C)C(=O)CN)nc12 [Compound 115, 3-amino-N-({2-[{2-[glycyl(methyl)amino]ethyl}(methyl)amino]-8-methylquinolin-3-yl}methyl)pyrazine-2-carboxamide] | 50 to 250 nM
2 | CNCC(=O)N(C)CCN(C)c1nc2c(C)cccc2cc1CNC(=O)c1nccnc1N [Compound 116, 3-amino-N-{[8-methyl-2-(methyl{2-[methyl(N-methylglycyl)amino]ethyl}amino)quinolin-3-yl]methyl}pyrazine-2-carboxamide] | 50 to 250 nM
3 | Cc1ccccc1-c1cc2ccccc2nc1C(C)n1nc(I)c2c(N)ncnc21 (stereo not shown) [Compound 117, 3-iodo-1-{1-[3-(2-methylphenyl)quinolin-2-yl]ethyl}-1H-pyrazolo[3,4-d]pyrimidin-4-amine] | < 50 nM
4 | Cc1ccccc1-c1cc2c(C)cccc2nc1CNC(=O)c1nccnc1N [Compound 118, 3-amino-N-{[5-methyl-3-(2-methylphenyl)quinolin-2-yl]methyl}pyrazine-2-carboxamide] | 250 to 500 nM
5 | Cc1ccccc1-c1cc2c(C)cccc2nc1Cn1nc(I)c2c(N)ncnc21 [Compound 119, 3-iodo-1-{[5-methyl-3-(2-methylphenyl)quinolin-2-yl]methyl}-1H-pyrazolo[3,4-d]pyrimidin-4-amine] | < 50 nM
6 | Cc1ccccc1-c1cc2ccccc2cc1Cn1cnc2c(N)ncnc21 [Compound 120, 9-{[3-(2-methylphenyl)naphthalen-2-yl]methyl}-9H-purin-6-amine] | 500 to 1500 nM
7 | Cc1cccc2cc(CNC(=O)c3nccnc3N)c(N(C)CCO)nc12 [Compound 121, 3-amino-N-({2-[(2-hydroxyethyl)(methyl)amino]-8-methylquinolin-3-yl}methyl)pyrazine-2-carboxamide] | 50 to 250 nM
8 | CNCCOc1nc2c(C)cccc2cc1CNC(=O)c1nccnc1N [Compound 122, 3-amino-N-[(8-methyl-2-{[2-(methylamino)ethyl]oxy}quinolin-3-yl)methyl]pyrazine-2-carboxamide] | 500 to 1500 nM
9 | CC(=O)N1CCN(c2nc3c(C)cccc3cc2CNC(=O)c2nccnc2N)CC1 [Compound 124, N-{[2-(4-acetylpiperazin-1-yl)-8-methylquinolin-3-yl]methyl}-3-aminopyrazine-2-carboxamide] | 250 to 500 nM
10 | Cc1cccc2cc(CNC(=O)c3nccnc3N)c(NCCO)nc12 [Compound 125, 3-amino-N-({2-[(2-hydroxyethyl)amino]-8-methylquinoin-3-yl}methyl)pyrazine-2-carboxamide] | 500 to 1500 nM
11 | Cc1cccc2cc(CNC(=O)c3nccnc3N)c(N3CCC(N(C)C)CC3)nc12 [Compound 127, 3-amino-N-({2-[4-(dimethylamino)piperidin-1-yl]-8-methylquinolin-3-yl}methyl)pyrazine-2-carboxamide] | 500 to 1500 nM
12 | Cc1cccc2cc(CNC(=O)c3nccnc3N)c(N(C)CCN(C)C)nc12 [Compound 128, 3-amino-N-[(2-{[2-(dimethylamino)ethyl](methyl)amino}-8-methylquinolin-3-yl)methyl]pyrazine-2-carboxamide] | < 50 nM
13 | Cc1cccc2cc(CNC(=O)c3nccnc3N)c(NCCN(C)C)nc12 [Compound 129, 3-amino-N-[(2-{[2-(dimethylamino)ethyl]amino}-8-methylquinolin-3-yl)methyl]pyrazine-2-carboxamide] | 500 to 1500 nM
14 | CNCCN(C)c1nc2c(C)cccc2cc1CNC(=O)c1nccnc1N [Compound 130, 3-amino-N-[(8-methyl-2-{methyl[2-(methylamino)ethyl]amino}quinolin-3-yl)methyl]pyrazine-2-carboxamide] | 250 to 500 nM
15 | Cc1cccc2cc(CNC(=O)c3nccnc3N)c(N3CCNCC3)nc12 [Compound 131, 3-amino-N-[(8-methyl-2-piperazin-1-ylquinolin-3-yl)methyl]pyrazine-2-carboxamide] | 500 to 1500 nM
16 | Cc1ccccc1-c1cc2ccccc2nc1CNc1cncnc1N [Compound 132, N-5-{[3-(2-methylphenyl)quinolin-2-yl]methyl}pyrimidin-4,5-diamine] | 500 to 1500 nM
17 | CNCCCN(C)c1nc2c(C)cccc2cc1CNC(=O)c1nccnc1N [Compound 133, 3-amino-N-[(8-methyl-2-{methyl[3-(methylamino)propyl]amino}quinolin-3-yl)methyl]pyrazine-2-carboxamide] | 50 to 250 nM
18 | Cc1ccccc1-c1nc2c(C)cccc2cc1Cn1nc(I)c2c(N)ncnc21 [Compound 134, 3-iodo-1-{[8-methyl-2-(2-methylphenyl)quinolin-3-yl]methyl}-1H-pyrazolo[3,4-d]pyrimidin-4-amine] | < 50 nM
19 | Cc1cccc2cc(CNC(=O)c3nccnc3N)c(N(C)CCCN(C)C(=O)CN(C)C)nc12 [Compound 136, 3-amino-N-({2-[{3-[(N,N-dimethylglycyl)(methyl)amino]propyl}(methyl)amino]-8-methylquinolin-3-yl}methyl)pyrazine-2-carboxamide] | < 50 nM
20 | Cc1cccc2cc(CNC(=O)c3nccnc3N)c(N3CCCN(C(=O)CN(C)C)CC3)nc12 [Compound 137, 3-amino-N-({2-[4-(N,N-dimethylglycyl)-1,4-diazepan-1-yl]-8-methylquinolin-3-yl}methyl}pyrazine-2-carboxamide] | 250 to 500 nM

Row | Compound | IC50
21 | Cc1cccc2cc(CNC(=O)c3nccnc3N)c(NCCCN(C)C)nc12 [Compound 138, 3-amino-N-[(2-{[3-(dimethylamino)propyl]amino}-8-methylquinolin-3-yl)methyl]pyrazine-2-carboxamide] | 500 to 1500 nM
22 | Cc1cccc2cc(CNC(=O)c3nccnc3N)c(N3CCCNCC3)nc12 [Compound 139, 3-amino-N-{[2-(1,4-diazepan-1-yl)-8-methylquinolin-3-yl]methyl}pyrazine-2-carboxamide] | 250 to 500 nM
23 | Cc1cccc2cc(CNC(=O)c3nccnc3N)c(N3CCCN(C)CC3)nc12 [Compound 140, 3-amino-N-{[8-methyl-2-(4-methyl-1,4-diazepan-1-yl)quinolin-3-yl]methyl}pyrazine-2-carboxamide] | 250 to 500 nM
24 | Cc1ccccc1-c1cc2ccccc2nc1CNc1ncnc2[nH]nc(Br)c12 [Compound 141, 3-bromo-N-{[3-(2-methylphenyl)quinolin-2-yl]methyl}-1H-pyrazolo[3,4-d]primidin-4-amine] | 500 to 1500 nM
25 | Cc1ccccc1-c1cc2ccccc2nc1CNC(=O)c1nccnc1N [Compound 142, 3-amino-N-{[3-(2-methylphenyl)quinolin-2-yl]methyl}pyrazine-2-carboxamide] | 500 to 1500 nM
26 | CC(=O)N1CCN(c2nc3c(C)cccc3cc2CNc2ncnc3[nH]cnc23)CC1 [Compound 143, N-{[2-(4-acetylpiperazin-1-yl)-8-methylquinolin-3-yl]methyl}-9H-purin-6-amine] | < 50 nM
27 | CCN1CCN(c2nc3c(C)cccc3cc2CNc2ncnc3[nH]cnc23)CC1 [Compound 144, N-{[2-(4-ethylpiperazin-1-yl)-8-methylquinolin-3-yl]methyl}-9H-purin-6-amine] | < 50 nM
28 | Cc1ccccc1-c1cc2ccccc2nc1Cn1nc(I)c2c(N)ncnc21 [Compound 145, 3-iodo-1-{[3-(2-methylphenyl)quinolin-2-yl]methyl}-1H-pyrazolo[3,4-d]pyrimidin-4-amine] | < 50 nM
29 | Cc1cccc2cc(CNc3ncnc4[nH]cnc34)c(N3CCCN(C)CC3)nc12 [Compound 146, N-{[8-methyl-2-(4-methyl-1,4-diazepan-1-yl)quinolin-3-yl]methyl}-9H-purin-6-amine] | < 50 nM
30 | Cc1cccc2cc(CNC(=O)c3nccnc3N)c(N3CCCCC3)nc12 [Compound 147, 3-amino-N-[(8-methyl-2-piperidin-1-ylquinolin-3-yl)methyl]pyrazine-2-carboxamide] | 500 to 1500 nM
31 | Cc1cccc2cc(CNC(=O)c3nccnc3N)c(-c3ccccc3Cl)nc12 [Compound 148, 3-amino-N-{[2-(2-chlorophenyl)-8-methylquinolin-3-yl]methyl}pyrazine-2-carboxamide] | 50 to 250 nM
32 | CNCCN(C)c1nc2c(C)cccc2cc1Cn1cnc2c(N)ncnc21 [Compound 149, N-{3-[(6-amino-9H-purin-9-yl)methyl]-8-methylquinolin-2-yl}-N,N′-dimethylethane-1,2-diamine] | < 50 nM
33 | Cc1cccc2cc(Cn3cnc4c(N)ncnc43)c(N3CC4CC3CN4C)nc12 (stereo not shown) [Compound 150, 9-{[8-methyl-2-(5-methyl-2,5-diazabicyclo[2.2.1]hept-2-yl)quinolin-3-yl]methyl}-9H-purin-6-amine] | 500 to 1500 nM
34 | Cc1ccccc1-n1c(CNC(=O)c2nccnc2N2CCOCC2)nc2cccc(C)c2c1=O [Compound 151] | 500 to 1500 nM
35 | Cc1cccc2cc(C(C)Nc3ncnc4[nH]cnc34)c(-c3ccccc3Cl)nc12 (stereo not shown) [Compound 152, N-{1-[2-(2-chlorophenyl)-8-methylquinolin-3-yl]ethyl}-9H-purin-6-amine] | < 50 nM
36 | Cc1cccc2cc(Cn3cnc4c(N)ncnc43)c(NS(C)(=O)=O)nc12 [Compound 153, N-{3-[(6-amino-9H-purin-9-yl)methyl]-8-methylquinolin-2-yl}methanesulfonamide] | 500 to 1500 nM
37 | Cc1cccc2cc(CNc3ncnc4[nH]cnc34)c(-c3ccccc3Cl)nc12 [Compound 154, N-{[2-(2-chlorophenyl)-8-methylquinolin-3-yl]methyl}-9H-purin-6-amine] | < 50 nM
38 | Cc1ccccc1-c1cc2ccccc2nc1CNc1ncnc2[nH]cnc12 [Compound 155, N-{[3-(2-methylphenyl)quinolin-2-yl]methyl}-9H-purin-6-amine] | 50 to 250 nM
39 | Cc1cccc2cc(Cn3cnc4c(N)ncnc43)c(NS(=O)(=O)c3ccccc3)nc12 [Compound 156, N-{3-[(6-amino-9H-purin-9-yl)methyl]-8-methylquinolin-2-yl}benzenesulfonamide] | 500 to 1500 nM
40 | Cc1ccccc1-n1c(CCN)nc2cccc(C)c2c1=O [Compound 157, 2-(2-aminoethyl)-5-methyl-3-(2-methylphenyl)quinazolin-4(3H)-one] | 500 to 1500 nM
